Results: patent US6361815B1, “Products comprising trihydroxystilbenes and derivatives thereof and methods for their manufacture and use” (Pure World Botanicals, Inc., priority 1998, dated 2002)
Where a name gives a salt, the structure may show the parent alone.

Columns and labels:
[1] = system: carrageenan-induced pedal edema; conditions: rats, cited from earlier work
[2] = system: DMBA-induced mammary tumors; assay: DMBA-induced mammary carcinogenesis in rats; format: in vivo, Female Sprague-Dawley rats; conditions: for Rat with Tumors, percentage in parentheses (reduction versus Control Diet + DMBA, not explained) / Tumors Per Rat, percentage in parentheses (reduction versus Control Diet + DMBA, not explained): Sulforaphane 50 mg/kg by gavage + DMBA; for Rat with Tumors (%) / Tumors Per Rat: Sulforaphane 50 mg/kg by gavage once a day, days 46-51 of age, + DMBA
Method: Sulforaphane was orally administered by gavage (50 mg / kg body weight in 0.1 ml corn oil) to rats once a day at 46th, 47th, 48th, 49th, 50th and 51st days of their age. […] Palpable mammary tumors were counted every week after DMBA administration.

A-549 = assay: MTT assay, 6-cell line test, lung A-549; format: cell-based, human; conditions: A-549 cells
Method: (§1) Cells were planted in 96 well flat bottom plates with low evaporation lids. Three cell lines per plate were seeded in 0.2 ml medium per well. Each cell line was planted at the optimum concentration for its particular growth rate: H-29 and A-549, 5000 c/ml, MCF-7, 15000 c/well, KB and similar cells, 2500 c/ml, P388 and similar cells, 15000 c/ml. Products were tested at various dilutions (at least ten) to determine the ED 50.

A-478 = assay: MTT assay, 6-cell line test, kidney A-478; format: cell-based, human; conditions: A-478 cells
Method: as §1

PC-3 = assay: MTT assay, 6-cell line test, prostate PC-3; format: cell-based, human; conditions: PC-3 cells
Method: as §1

HT-29 = assay: MTT assay, 6-cell line test, colon HT-29; format: cell-based, human; conditions: HT-29 cells
Method: as §1

MCF-7 = assay: MTT assay, 6-cell line test, breast MCF-7; format: cell-based, human; conditions: MCF-7 cells
Method: as §1

PACA-2 = assay: MTT assay, 6-cell line test, pancreatic PACA-2; format: cell-based, human; conditions: PACA-2 cells
Method: as §1

Oc1ccc(C=Cc2cc(O)cc(O)c2)cc1 [resveratrol, 3,4′,5-trihydroxystilbene]
Pedal edema, acute phase ([1]; acute phase (3 to 24 hours)): significantly reduced pedal edema
Pedal edema, chronic phase ([1]; chronic phase (24 to 144 hours)): significantly reduced pedal edema
Edema-suppressing activity compared with reference drugs ([1]; versus phenylbutazone and indomethacin): greater than that of phenylbutazone and similar to that of indomethacin

C[S+]([O-])CCCCN=C=S (stereo not drawn) [Sulforaphane]
Rat with Tumors, percentage in parentheses (reduction versus Control Diet + DMBA, not explained) ([2]; 9 weeks after DMBA): (100%)
Tumors Per Rat, percentage in parentheses (reduction versus Control Diet + DMBA, not explained) ([2]; 9 weeks after DMBA): (100%)
Rat with Tumors (%) ([2]; 9 weeks after DMBA): 0%
Tumors Per Rat ([2]; 9 weeks after DMBA): 0
Rat with Tumors, percentage in parentheses (reduction versus Control Diet + DMBA, not explained) ([2]; 14 weeks after DMBA): (32%)
Tumors Per Rat, percentage in parentheses (reduction versus Control Diet + DMBA, not explained) ([2]; 14 weeks after DMBA): (43%)
Rat with Tumors (%) ([2]; 14 weeks after DMBA): 13%
Tumors Per Rat ([2]; 14 weeks after DMBA): 0.13 ± 0.08
Rat with Tumors, percentage in parentheses (reduction versus Control Diet + DMBA, not explained) ([2]; 22 weeks after DMBA): (38%)
Tumors Per Rat, percentage in parentheses (reduction versus Control Diet + DMBA, not explained) ([2]; 22 weeks after DMBA): (10%)
Rat with Tumors (%) ([2]; 22 weeks after DMBA): 31%
Tumors Per Rat ([2]; 22 weeks after DMBA): 0.36 ± 0.33

Oc1ccc(/C=C/c2cc(O)cc(O)c2)cc1 [3,4′,5-trihydroxy-trans-stilbene]
Lung A-549 ED 50 (A-549): 0.326 µg/mL
Kidney A-478 ED 50 (A-478): 0.74 µg/mL
Prostrate PC-3 ED 50 (PC-3): 100 µg/mL
Colon HT-29 ED 50 (HT-29): 1.66 µg/mL
Breast MCF-7 ED 50 (MCF-7): 4.23 µg/mL
Pancreatic PACA-2 ED 50 (PACA-2): 3.55 µg/mL

OC[C@H]1O[C@@H](Oc2cc(O)cc(/C=C/c3ccc(O)cc3)c2)[C@H](O)[C@@H](O)[C@@H]1O (relative stereo) [Fifth Product, 90% Piceid, 3,4′5-trans-trihydroxystilbene-3-β-mono-D-glucoside]
Lung A-549 ED 50 (A-549): 35.77 µg/mL
Kidney A-478 ED 50 (A-478): 34.95 µg/mL
Prostrate PC-3 ED 50 (PC-3): 80.58 µg/mL
Colon HT-29 ED 50 (HT-29): 79.20 µg/mL
Breast MCF-7 ED 50 (MCF-7): 100 µg/mL
Pancreatic PACA-2 ED 50 (PACA-2): 40.98 µg/mL

COc1cccc2c1C(=O)c1c(O)c3c(c(O)c1C2=O)C[C@@](O)(C(=O)CO)C[C@@H]3O[C@H]1C[C@H](N)[C@H](O)[C@H](C)O1 [Doxorubicin HCL]
Lung A-549 ED 50 (A-549): 0.00316 µg/mL
Kidney A-478 ED 50 (A-478): 0.00359 µg/mL
Prostrate PC-3 ED 50 (PC-3): 0.0281 µg/mL
Colon HT-29 ED 50 (HT-29): 0.022 µg/mL
Breast MCF-7 ED 50 (MCF-7): 0.107 µg/mL
Pancreatic PACA-2 ED 50 (PACA-2): 0.00522 µg/mL
